# Active and inactive are the calls of the source. The calls are words filed in the database; no cut-off is given here.
# Columns and labels:
# [1] = target: Prothrombin (Homo sapiens) (UniProt P00734); experiment: Inhibition of thrombin-mediated conversion of fibrinogen to fibrin
# [2] = Cytotoxicity against human HepG2(2.2.15) cells; format: functional, cell-based
# HepG2 = experiment: Cytotoxicity against human HepG2 cells; format: functional, cell-based
SMILES,Activity [1],IC50 [2] [µg/mL],IC50 (HepG2) [µg/mL]
COC1=C[C@@]23CCN(C)[C@@H](Cc4ccc(OC)c(O)c42)C3=CC1=O,inactive,10.4,10.2
COc1c2c3c(c4c1OCO4)-c1ccccc1C[C@H]3N(C(C)=O)CC2,inactive,9.3,9.8
COc1c2c3c(c4c1OCO4)-c1ccccc1[C@@H](O)[C@H]3NCC2 [ARTABONATINE B],inactive,11,9.1
COc1ccc2c(c1)C(=O)c1nccc3cc4c(c-2c13)OCO4 [ATHEROSPERMIDINE],inactive,2.2,0.8
COC1=C[C@]23CCN(C)[C@H](Cc4cc(OC)c(O)cc42)C3=CC1=O [FLAVINANTINE],inactive,9.7,9.3
NC(=O)N1CCCC1=O [SQUAMOLONE],inactive,1.6,2.8
CC(C)=C1C=C(CN2CCCC2=O)C(=O)O1 [UNCININE],inactive,7.4,6.1
